Reference: patent US7737182B2, “Pharmaceuticals for xerosis” (Taisho Pharmaceutical Co., Ltd., priority 2001, dated 2010)

Assays:
BALB/c male mice [1] = experiment: Mouse skin's barrier function, treatment test, TEWL (Test Example 5); assay type: in vivo; conditions: barrier destroyed with acetone/diethyl ether; 0.01% in ethanol, 100 μL, once a day for 2 days
Procedure: Six-week-old BALB/c male mice in groups of eight were shaven in a rostral dorsolateral area of 4 cm^2 (2 cm×2 cm) with electric clippers and the shaven area was covered for 60 seconds with an absorbent cotton (2 cm×2 cm) impregnated with a 1:1 liquid mixture of acetone and diethyl ether. This treatment for destroying the skin's barrier function was performed for 3 consecutive days on once-a-day basis. Starting on the day next to completion of the treatment for barrier destruction at day 3, a solvent (ethanol, 100 μL) or a drug dissolved in the solvent (compound No. 7, PGD2, PGF2α, or PGE1, all being at 0.01% in an amount of 100 μL) was applied to the barrier destroyed site for 2 days on once-a-day basis. On the day next to the second application of the solvent or drug, the transepidermal water loss (TEWL) at the same site was measured with Tewameter (TM210 of Courage & Khazawa, Germany) to evaluate the drug's action.

BALB/c male mice [2] = experiment: Mouse skin's barrier function, preventive test, TEWL (Test Example 6); assay type: in vivo; conditions: cohabitation with dermatitic NC/Nga mice; 0.01% in ethanol, 100 μL, once a day for 7 days
Procedure: Six-week-old BALB/c male mice in groups of six were shaven in a rostral dorsolateral area of 4 cm^2 (2 cm×2 cm) with electric clippers and kept in the same cage as NC/Nga mice that had developed dermatitis. From the day next to the start of cohabitation, a solvent (ethanol, 100 μL) or a drug dissolved in the solvent (compound No. 7, PGD2, PGF2α, or PGE1, all being at 0.01% in an amount of 100 μL) was applied to the shaven site for 7 days on once-a-day basis.
On the day next to the seventh application of the solvent or drug, the transepidermal water loss (TEWL) at the same site was measured with Tewameter (TM210 of Courage & Khazawa, Germany) to evaluate the drug's action, with the solvent-applied group being used as the control group.

[3] = test system: NC mice induced to manifest dermatitis; experiment: Dermatitis score in dermatitis manifesting NC mouse models (Test Example 2); assay type: in vivo; conditions: 0.1% in 100% ethanol, 200 μl on dorsal back, seven times a week for 4 weeks
Procedure: By suitably modifying a method known to the skilled artisan (Jpn. J. Pharmacol. 76, 175-183 (1998) Jun Hiroi, et al. Effects of Tacrolimus Hydrate (FK-506) Ointment on Spontaneous Dermatitis in NC/Nga Mice), the following test was conducted in order to confirm the antipruritic effect of compounds of the invention.
Animals: Four-week old SPF NC mice (male) were purchased from Japan SLC; right after their arrival, the SPF NC mice were kept together with dermatitis manifesting male NC mice (older than 20 weeks) for 2 weeks under the following conditions so as to induce itch-evoked scratching behavior. […]
Drug administration: To the dorsal backs of the 20-wk NC mice that were induced to manifest dermatitis as the result of cohabitation with the spontaneous dermatitis manifesting NC mice, 100% ethanol, compound No. 7 (0.01%) dissolved in 100% ethanol or tacrolimus (0.1%) dissolved in 100% ethanol was applied from an Eppendorf pipette in 200-μl doses seven times a week for a period of 4 weeks. […] Dermatitis score: Dermatitic symptoms were observed and measured once a week. […]

[4] = test system: NC/Nga mice manifesting atopic dermatitis; experiment: Spontaneous itch-evoked scratching behavior of NC mice (Test Example 1); assay type: in vivo; conditions: for Inhibition rate (%) (percent itch suppression): 0.2 ml/mouse on dorsal skin, 24-hr scratching counts before vs after; for Efficacy (significance, paired t-test): scratching counts before vs after application
Procedure: About 20-week old NC/Nga mice each weighing about 30 g and manifesting atopic dermatitis were purchased from SLC and subjected to the following experiment. A magnet was buried in both hind paws of each mouse and by detecting its magnetism, the movement of the paws was measured with an itch measuring system (product of Neuroscience; when the mouse makes an action, the magnets move accordingly and a current flows through the coil; the moving magnets cause a change in the current, which is detected, measured and analyzed). Among the scratching actions, those lasting 1.5 seconds or longer were considered itch-evoked and their number was counted continuously. […] The subsequent 24-hr itch-evoked scratching behavior was measured and the number of itch-evoked scratchings after drug administration was compared with the initial count. The experimental data was processed to calculate the percent itch suppression on the basis of the total 24-hr itch-evoked scratching counts before and after drug application. For significance testing, the itch-evoked scratching counts that were obtained before and after drug application from individual animals in each group treated with a specific concentration of drug were processed by a paired t-test. Percent itch suppression (%)=(itch-evoked scratching count before drug application−itch-evoked scratching count after drug application)×100/itch-evoked scratching count before drug application (Results)

prostaglandin D receptor = biological target: T1, prostaglandin D receptor (Homo sapiens, UniProt Q13258); experiment: Antagonism by BW A868C of the suppression of ADP-induced human platelet aggregation; assay type: cell-based; conditions: human PRP, ADP 3 μmol/L
T1 construct: separate the supernatant (PRP, or platelet-rich plasma); endogenous in cells; host or cells: human platelets (platelet-rich plasma from healthy male donors)
T1 sequence (Q13258 1-359): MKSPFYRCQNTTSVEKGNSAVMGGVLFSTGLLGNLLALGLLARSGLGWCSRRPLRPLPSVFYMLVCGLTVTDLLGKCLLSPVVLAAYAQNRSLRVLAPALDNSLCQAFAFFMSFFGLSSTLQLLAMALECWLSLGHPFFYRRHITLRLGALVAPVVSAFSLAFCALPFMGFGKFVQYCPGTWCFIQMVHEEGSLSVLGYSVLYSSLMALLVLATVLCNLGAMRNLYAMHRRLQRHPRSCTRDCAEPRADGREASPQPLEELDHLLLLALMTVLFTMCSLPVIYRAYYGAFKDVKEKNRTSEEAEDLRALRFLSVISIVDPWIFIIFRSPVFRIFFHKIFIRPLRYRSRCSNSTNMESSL
Procedure: The prostaglandin D receptor selective antagonist used in the test was ((+/−)-3-benzyl-5-(6-carboxyhexyl)-1-(2-cyclohexyl-2-hydroxyethylamino)-hydantoin) (hereunder designated BW A868C) (Sigma-Aldrich Japan K.K.)
BW A868C was diluted with ethanol to final concentrations of 0.03 μmol/L, 0.1 μmol/L, 0.3 μmol/L, 1 μmol/L, 3 μmol/L and 10 μmol/L.
Compound No. 7 and PGD2 were diluted with ethanol to 287 nmol/L and 300 nmol/L, respectively, for subsequent use.
Blood was taken from the cubital veins of human healthy males and sampled into a tube containing 3.13% sodium citrate. The blood sample was centrifuged at 1,000 rpm for 10 minutes at 20° C. to separate the supernatant (PRP, or platelet-rich plasma) and the residue was further centrifuged at 3,000 rpm for 10 minutes at 20° C. to separate the supernatant (PPP, or platelet-poor plasma). The platelet count of PRP was appropriately diluted with PPP to 30×10^4 platelets/μL for subsequent use.
Platelet aggregation was measured with a platelet aggregation measuring instrument (PAM-8C; MC MEDICAL Co., LTD.) by the Born method (Nature, vol. 194, p. 927, 1962). A portion (273 μL) of PRP (for the BW A868C groups, 1 μL of BW A868C was added at varying concentrations) was preincubated at 37° C. for 3 minutes with stirring at 1,000 rpm. After the preincubation, 1 μL of ethanol or a test substance (compound No. 7: final concentration at 95.7 nmol/L; PGD2: final concentration at 1000 nmol/L) was added and the mixture was incubated at 37° C. for 3 minutes with stirring at 1000 rpm. After the incubation, 25 μL of ADP (final concentration at 3 μmol/L) was added to induce platelet aggregation and a maximum percent aggregation for 5 minutes was measured.

[5] = concentration 0.00001% in 100% ethanol

CCCCC[C@H](O)/C=C/[C@@H]1[C@@H](C/C=C\CCCC(=O)O)[C@@H](O)C[C@H]1O [PGF2α]
transepidermal water loss (TEWL) compared to the solvent-applied control group (BALB/c male mice [1]): no significant difference from the control group | transepidermal water loss (TEWL) compared to the control group (BALB/c male mice [2]): no significant difference from the control group

C=CC[C@@H]1/C=C(\C)C[C@H](C)C[C@H](OC)[C@H]2O[C@@](O)(C(=O)C(=O)N3CCCC[C@H]3C(=O)O[C@H](/C(C)=C/[C@@H]3CC[C@@H](O)[C@H](OC)C3)[C@H](C)[C@@H](O)CC1=O)[C@H](C)C[C@@H]2OC [tacrolimus, reference compound]
dermatitis score suppressing action compared to the vehicle group [3]: significant dermatitis score suppressing action

O=C(O)CSCCSC[C@@H]1[C@@H](C#C[C@@H](O)C2CCCCC2)[C@H](O)C[C@H]1Cl [Compound No. 25]
Inhibition rate (%) (percent itch suppression) [4, 5]: 21.51% | Efficacy (significance, paired t-test) ([4]; concentration 0.00001%): * (*: P < 0.05)

O=C(O)C#CCCCC[C@@H]1[C@@H](C#C[C@@H](O)C2CCCCC2)[C@H](O)C[C@H]1Cl [Compound No. 15]
Inhibition rate (%) (percent itch suppression) ([4]; concentration 0.000001% in 100% ethanol): 34.61% | Efficacy (significance, paired t-test) ([4]; concentration 0.000001%): * (*: P < 0.05)

O=C(O)CCCCCCC1C(=O)N(Cc2ccccc2)C(=O)N1NCC(O)C1CCCCC1 (racemic) [BW A868C, ((+/−)-3-benzyl-5-(6-carboxyhexyl)-1-(2-cyclohexyl-2-hydroxyethylamino)-hydantoin)]
concentration of BW A868C with significant antagonism of the platelet aggregation suppressing action of PGD2 (prostaglandin D receptor; PGD2 at 1000 nmol/L): ≥ 0.3 µmol/L | concentration of BW A868C with significant antagonism of the platelet aggregation suppressing action of compound No. 7 (prostaglandin D receptor; compound No. 7 at 95.7 nmol/L): ≥ 0.1 µmol/L

O=C(O)CCCCSC[C@@H]1[C@@H](C#C[C@@H](O)C2CCCCC2)[C@H](O)C[C@H]1Cl [Compound No. 32]
Inhibition rate (%) (percent itch suppression) [4, 5]: 41.76% | Efficacy (significance, paired t-test) ([4]; concentration 0.00001%): ** (**: P < 0.01)

CCCCC[C@H](O)/C=C/[C@H]1[C@H](O)CC(=O)[C@@H]1CCCCCCC(=O)O [PGE1]
transepidermal water loss (TEWL) compared to the solvent-applied control group (BALB/c male mice [1]): no significant difference from the control group | transepidermal water loss (TEWL) compared to the control group (BALB/c male mice [2]): significant decrease in TEWL

COC(=O)CSCCCC[C@@H]1[C@@H](C#C[C@@H](O)C2CCCCC2)[C@H](O)C[C@H]1Cl [Compound No. 6]
Inhibition rate (%) (percent itch suppression) ([4]; concentration 0.0001% in 100% ethanol): 32.26% | Efficacy (significance, paired t-test) ([4]; concentration 0.0001%): * (*: P < 0.05)
